Experimental data as given in article PMC9780888, “4-Isobutylmethcathinone—A Novel Synthetic Cathinone with High In Vitro Cytotoxicity and Strong Receptor Binding Preference of Enantiomers” (Pharmaceuticals, 2022).
Structures can show the parent of a compound that is named as a salt.

Test system: MRC-5
Assay: WST-1 viability assay, MRC-5 cells
Type: cell-based, human
Settings: MRC-5, 72 h incubation, WST-1, four replicates
Protocol: Based on the novelty of the IMBcat compound, we aimed to evaluate its in vitro cytotoxicity in selected model cell lines as well as to determine the toxicity of the IBMcat enantiomers, since both the chemical structure and chirality of compounds could play a role in their bioactivity (Table 2). The cytotoxic profile of the IBMcat was determined by a WST-1 viability assay after 72-h treatment. For this purpose, cell lines derived from distinct tissues, often affected by NPSs, were chosen, i.e., cells of kidney, hepatic, neural, urinary, and intestinal origin as well as keratinocytes and primary fibroblasts (HEK 293T, Hep G2, HMC-3, SH-SY5Y, 5637, CaCo-2, HaCaT, MRC-5, and BJ, respectively). The cytotoxicity of IBMcat and its enantiomers was concentration- and cell-line dependent, the IC50 values, which were in the micromolar range, are given in Table 2. […] This was followed by embryonic kidney cells HEK 293T (immortalized), in which the toxicity ranged between a concentration of 123 and 192 µM.
In this study, the following cell lines were used: HEK 293T, Hep G2, HMC-3, SH-SY5Y, 5637, CaCo-2, HaCaT, MRC-5, BJ, and L929. […] The selected cell lines were chosen so that not only primary noncancerous cells are evaluated but also cells derived from tissues, which are the most often affected by novel synthetic drugs, i.e., kidney, liver, urinary bladder, and nervous tissue. […]
The cytotoxicity of IBMCat was evaluated in vitro by using a WST-1 viability assay (Sigma-Aldrich, Saint Louis, MO, USA) based on the transformation of a tetrazolium salt into colored formazan in metabolically active cells. […] After 72 h of additional incubation of the cells, their viability was determined by WST-1. […] The cells were incubated for 2 h, after which absorbance of the raised formazan was measured spectrophotometrically at 450 nm (reference wavelength of 630 nm) using a UV-Vis spectrometer (Bio-Rad Laboratories, Hercules, CA, USA). […] The half-maximal inhibitory concentrations (IC50) were calculated from the measured dose–response curves by AAT Bioquest.

Row | SMILES | IC50 (Homo sapiens, MRC5) | IC50
1 | CNC(C)C(=O)c1ccc(CC(C)C)cc1.Cl (stereo not drawn) [IBMcat, 4-isobutylmethcathinone hydrochloride] | 635 ± 17 µM | –
2 | CN[C@H](C)C(=O)c1ccc(CC(C)C)cc1 [R-IBMCat] | – | 515 ± 34 µM
3 | CN[C@@H](C)C(=O)c1ccc(CC(C)C)cc1 [S-IBMCat, (S)-4-isobutylmethcathinone hydrochloride] | 530 ± 35 µM | –
